Tests used:
Test in all cases: relative viability (nuclei count vs DMSO), 5 days (fraction); higher = more cells survive
[1] = test system: HOP-62
Summary of the method: (§1)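 Medians of duplicate plates are given as relative viability. That measure is the nuclei count in treated wells divided by the count in vehicle wells. Counts were taken on 4× images of lung cancer cell lines in 1536-well plates, 5 days after pin-tool dosing the day after seeding with one drug alone or a fixed anchor-drug dose plus five library-drug doses (not always all listed) in √10 steps.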

[2] = test system: NCI-H1792
Summary of the method: as §1

[3] = test system: NCI-H2009
Summary of the method: as §1

[4] = test system: LU99A
Summary of the method: as §1

[5] = test system: NCI-H460
Summary of the method: as §1

[6] = test system: LXF-289
Summary of the method: as §1

[7] = test system: NCI-H1915
Summary of the method: as §1

[8] = test system: SK-LU-1
Summary of the method: as §1

[9] = test system: COR-L 105
Summary of the method: as §1

[10] = test system: NCI-H2085
Summary of the method: as §1

[11] = test system: HCC-366
Summary of the method: as §1

[12] = test system: EPLC-272H
Summary of the method: as §1

[13] = test system: NCI-H1793
Summary of the method: as §1

[14] = test system: UMC-11
Summary of the method: as §1

[15] = test system: NCI-H1666
Summary of the method: as §1

[16] = test system: LC-2-ad
Summary of the method: as §1

[17] = test system: NCI-H2170
Summary of the method: as §1

[18] = test system: NCI-H1944
Summary of the method: as §1

[19] = test system: A-427
Summary of the method: as §1

[20] = test system: HCC-78
Summary of the method: as §1

`Nc1ccn([C@@H]2O[C@H](CO)[C@@H](O)[C@@H]2O)c(=O)n1` [Cytarabine] + CC1(C)CCC(c2ccc(Cl)cc2)=C(CN2CCN(c3ccc(C(=O)NS(=O)(=O)c4ccc(N[C@H](CCN5CCOCC5)CSc5ccccc5)c(S(=O)(=O)C(F)(F)F)c4)cc3)CC2)C1 [Navitoclax] (partner 0.5 µM) showed a relative viability ([1]; first compound 0.005 µM) of 0.946, a relative viability ([1]; first compound 0.01581 µM) of 0.405 and a relative viability ([1]; first compound 0.05 µM) of 0.342. For the same compound, the relative viability ([1]; first compound 0.1581 µM) was 0.104, the relative viability ([1]; first compound 0.5 µM) was 0.0809 and the relative viability ([2]; first compound 0.005 µM) was 0.339. It also gave a relative viability ([2]; first compound 0.01581 µM) of 0.55, a relative viability ([2]; first compound 0.05 µM) of 0.223 and a relative viability ([2]; first compound 0.1581 µM) of 0.304. For the same compound, the relative viability ([2]; first compound 0.5 µM) was 0.246, the relative viability ([3]; first compound 0.005 µM) was 1.13 and the relative viability ([3]; first compound 0.01581 µM) was 1.21. The relative viability ([3]; first compound 0.05 µM) was 0.99, the relative viability ([3]; first compound 0.1581 µM) was 0.898 and the relative viability ([3]; first compound 0.5 µM) was 0.31. It also gave a relative viability ([4]; first compound 0.005 µM) of 0.906, a relative viability ([4]; first compound 0.01581 µM) of 0.826 and a relative viability ([4]; first compound 0.05 µM) of 0.771. The relative viability ([4]; first compound 0.1581 µM) was 0.726, the relative viability ([4]; first compound 0.5 µM) was 0.56 and the relative viability ([5]; first compound 0.005 µM) was 1.06. It also gave a relative viability ([5]; first compound 0.01581 µM) of 1.16, a relative viability ([5]; first compound 0.05 µM) of 0.323 and a relative viability ([5]; first compound 0.1581 µM) of 0.0167. For the same compound, the relative viability ([5]; first compound 0.5 µM) was 0.0173, the relative viability ([6]; first compound 0.005 µM) was 0.805 and the relative viability ([6]; first compound 0.01581 µM) was 0.944. For the same compound, the relative viability ([6]; first compound 0.05 µM) was 0.564, the relative viability ([6]; first compound 0.1581 µM) was 0.395 and the relative viability ([6]; first compound 0.5 µM) was 0.253. The relative viability ([7]; first compound 0.005 µM) was 0.799, the relative viability ([7]; first compound 0.01581 µM) was 0.719 and the relative viability ([7]; first compound 0.05 µM) was 0.714. The relative viability ([7]; first compound 0.1581 µM) was 0.411, the relative viability ([7]; first compound 0.5 µM) was 0.386 and the relative viability ([8]; first compound 0.005 µM) was 0.775. It also gave a relative viability ([8]; first compound 0.01581 µM) of 0.703, a relative viability ([8]; first compound 0.05 µM) of 0.34 and a relative viability ([8]; first compound 0.1581 µM) of 0.266. For the same compound, the relative viability ([8]; first compound 0.5 µM) was 0.179, the relative viability ([9]; first compound 0.005 µM) was 0.699 and the relative viability ([9]; first compound 0.01581 µM) was 0.795. The relative viability ([9]; first compound 0.05 µM) was 0.588, the relative viability ([9]; first compound 0.1581 µM) was 0.435 and the relative viability ([9]; first compound 0.5 µM) was 0.34. The relative viability ([10]; first compound 0.005 µM) was 1.15, the relative viability ([10]; first compound 0.01581 µM) was 1.08 and the relative viability ([10]; first compound 0.05 µM) was 1.02. The relative viability ([10]; first compound 0.1581 µM) was 0.731, the relative viability ([10]; first compound 0.5 µM) was 0.728 and the relative viability ([11]; first compound 0.005 µM) was 0.889. It also gave a relative viability ([11]; first compound 0.01581 µM) of 0.918, a relative viability ([11]; first compound 0.05 µM) of 0.328 and a relative viability ([11]; first compound 0.1581 µM) of 0.0444. It also gave a relative viability ([11]; first compound 0.5 µM) of 0.0177, a relative viability ([12]; first compound 0.005 µM) of 1.01 and a relative viability ([12]; first compound 0.01581 µM) of 0.849. It also gave a relative viability ([12]; first compound 0.05 µM) of 0.842, a relative viability ([12]; first compound 0.1581 µM) of 0.33 and a relative viability ([12]; first compound 0.5 µM) of 0.247. For the same compound, the relative viability ([13]; first compound 0.005 µM) was 0.273, the relative viability ([13]; first compound 0.01581 µM) was 0.333 and the relative viability ([13]; first compound 0.05 µM) was 0.271. The relative viability ([13]; first compound 0.1581 µM) was 0.261, the relative viability ([13]; first compound 0.5 µM) was 0.244 and the relative viability ([14]; first compound 0.005 µM) was 0.268. It also gave a relative viability ([14]; first compound 0.01581 µM) of 0.197, a relative viability ([14]; first compound 0.05 µM) of 0.2 and a relative viability ([14]; first compound 0.1581 µM) of 0.141. It also gave a relative viability ([14]; first compound 0.5 µM) of 0.125, a relative viability ([15]; first compound 0.005 µM) of 0.755 and a relative viability ([15]; first compound 0.01581 µM) of 0.796. The relative viability ([15]; first compound 0.05 µM) was 0.718, the relative viability ([15]; first compound 0.1581 µM) was 0.41 and the relative viability ([15]; first compound 0.5 µM) was 0.355. It also gave a relative viability ([16]; first compound 0.005 µM) of 0.385, a relative viability ([16]; first compound 0.01581 µM) of 0.328 and a relative viability ([16]; first compound 0.05 µM) of 0.268. For the same compound, the relative viability ([16]; first compound 0.1581 µM) was 0.2, the relative viability ([16]; first compound 0.5 µM) was 0.188 and the relative viability ([17]; first compound 0.01581 µM) was 0.448. It also gave a relative viability ([17]; first compound 0.05 µM) of 0.361, a relative viability ([17]; first compound 0.1581 µM) of 0.28 and a relative viability ([17]; first compound 0.5 µM) of 0.263. For the same compound, the relative viability ([18]; first compound 0.005 µM) was 0.605, the relative viability ([18]; first compound 0.01581 µM) was 0.363 and the relative viability ([18]; first compound 0.05 µM) was 0.268. For the same compound, the relative viability ([18]; first compound 0.1581 µM) was 0.198, the relative viability ([18]; first compound 0.5 µM) was 0.201 and the relative viability ([19]; first compound 0.005 µM) was 0.813. For the same compound, the relative viability ([19]; first compound 0.01581 µM) was 0.496, the relative viability ([19]; first compound 0.05 µM) was 0.257 and the relative viability ([19]; first compound 0.1581 µM) was 0.154. For the same compound, the relative viability ([19]; first compound 0.5 µM) was 0.16, the relative viability ([20]; first compound 0.005 µM) was 0.879 and the relative viability ([20]; first compound 0.01581 µM) was 0.652. It also gave a relative viability ([20]; first compound 0.05 µM) of 0.684, a relative viability ([20]; first compound 0.1581 µM) of 0.364 and a relative viability ([20]; first compound 0.5 µM) of 0.219.

From the supplement of paper PMC10307832
